Experiments:
[1] = system: T2R02 of Latimeria chalumnae; parameters: method as in PMID 33355666; details: cited from earlier work
[2] = molecular target: T1, mouse Tas2r105 (Mus musculus, UniProt Q9JKT4); test: Calcium imaging assay (FLIPR), HEK293T-Gα16gust44 cells transfected with mouse Tas2r105; format: cell-based; details: for Δ F/F: Tas2r105
T1 construct: expressed in transfected cells; host or cells: HEK293T-Gα16gust44
T1 sequence (Q9JKT4 1-300): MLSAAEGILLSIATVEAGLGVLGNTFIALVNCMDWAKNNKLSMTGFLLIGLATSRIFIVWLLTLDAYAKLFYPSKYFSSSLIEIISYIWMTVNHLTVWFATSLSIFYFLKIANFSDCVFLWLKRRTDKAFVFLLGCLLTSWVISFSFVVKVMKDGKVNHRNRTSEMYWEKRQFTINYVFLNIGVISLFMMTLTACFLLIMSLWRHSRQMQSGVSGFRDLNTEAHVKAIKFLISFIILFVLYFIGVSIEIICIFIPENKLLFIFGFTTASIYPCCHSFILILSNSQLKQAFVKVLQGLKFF

C[C@H](CCC(=O)NCC(=O)O)[C@H]1CC[C@H]2[C@@H]3[C@H](O)C[C@@H]4C[C@H](O)CC[C@]4(C)[C@H]3C[C@H](O)[C@]12C [Glycocholic Acid, glycocholic acid]
Activation of T2R02 [1]: activate
Δ F/F ([2]; conc. 0,01 mM): 0.004381
Δ F/F ([2]; conc. 0,1 mM): 0.01642
Δ F/F ([2]; conc. 0,03 mM): 0.01245
Δ F/F ([2]; conc. 0,3 mM): 0.0274
Δ F/F ([2]; conc. 0,001 mM): 0.003279
Δ F/F ([2]; conc. 1 mM): 0.07136
Δ F/F ([2]; conc. 0,003 mM): -0.003104
RLU ([2]; Time 0 s): 0 RLU
RLU ([2]; Time 2 s): -27.0595 RLU
RLU ([2]; Time 4 s): -18.6603 RLU
RLU ([2]; Time 6 s): -18.2123 RLU
RLU ([2]; Time 8 s): -47.8563 RLU
RLU ([2]; Time 12 s): -34.2819 RLU
RLU ([2]; Time 14 s): -34.7557 RLU
RLU ([2]; Time 16 s): -23.6188 RLU
RLU ([2]; Time 18 s): -16.5747 RLU
RLU ([2]; Time 18.781 s): -3.899 RLU
RLU ([2]; Time 20.781 s): -20.1413 RLU
RLU ([2]; Time 22.781 s): -4.143 RLU
RLU ([2]; Time 24.781 s): 15.6549 RLU
RLU ([2]; Time 26.781 s): 13.7683 RLU
RLU ([2]; Time 28.781 s): 17.1414 RLU
RLU ([2]; Time 30.781 s): 33.1924 RLU
RLU ([2]; Time 32.781 s): 40.0682 RLU
RLU ([2]; Time 34.781 s): 38.6999 RLU
RLU ([2]; Time 36.781 s): 117.771 RLU
RLU ([2]; Time 38.781 s): 121.11 RLU
RLU ([2]; Time 40.781 s): 113.511 RLU
RLU ([2]; Time 42.781 s): 141.314 RLU
RLU ([2]; Time 44.781 s): 160.969 RLU
RLU ([2]; Time 46.781 s): 200.571 RLU
RLU ([2]; Time 48.781 s): 228.76 RLU
RLU ([2]; Time 50.781 s): 238.054 RLU
RLU ([2]; Time 52.781 s): 279.774 RLU
RLU ([2]; Time 54.781 s): 314.942 RLU
RLU ([2]; Time 56.781 s): 299.791 RLU
RLU ([2]; Time 58.781 s): 350.668 RLU
RLU ([2]; Time 60.781 s): 363.761 RLU
RLU ([2]; Time 62.781 s): 387.64 RLU
RLU ([2]; Time 64.781 s): 388.62 RLU
RLU ([2]; Time 66.781 s): 424.095 RLU
RLU ([2]; Time 68.781 s): 419.549 RLU
RLU ([2]; Time 70.781 s): 443.973 RLU
RLU ([2]; Time 72.781 s): 413.221 RLU
RLU ([2]; Time 74.781 s): 419.192 RLU
RLU ([2]; Time 76.781 s): 460.126 RLU
RLU ([2]; Time 78.781 s): 478.685 RLU
RLU ([2]; Time 80.781 s): 487.49 RLU
RLU ([2]; Time 82.781 s): 529.97 RLU
RLU ([2]; Time 84.781 s): 535.792 RLU
RLU ([2]; Time 86.781 s): 528.828 RLU
RLU ([2]; Time 88.781 s): 565.311 RLU
RLU ([2]; Time 90.781 s): 546.96 RLU
RLU ([2]; Time 92.781 s): 541.782 RLU
RLU ([2]; Time 94.781 s): 524.334 RLU
RLU ([2]; Time 96.781 s): 507.8 RLU
RLU ([2]; Time 98.781 s): 505.738 RLU
RLU ([2]; Time 100.781 s): 510.912 RLU
RLU ([2]; Time 102.781 s): 470.239 RLU
RLU ([2]; Time 104.781 s): 497.869 RLU
RLU ([2]; Time 106.781 s): 500.977 RLU
RLU ([2]; Time 108.781 s): 492.243 RLU
RLU ([2]; Time 110.781 s): 525.903 RLU
RLU ([2]; Time 112.781 s): 501.6 RLU
RLU ([2]; Time 114.781 s): 517.173 RLU
RLU ([2]; Time 116.781 s): 514.443 RLU
RLU ([2]; Time 118.781 s): 515.53 RLU
RLU ([2]; Time 120.781 s): 497.17 RLU
RLU ([2]; Time 122.781 s): 525.829 RLU
RLU ([2]; Time 124.781 s): 530.193 RLU
RLU ([2]; Time 126.781 s): 525.829 RLU
RLU ([2]; Time 128.781 s): 520.174 RLU
RLU ([2]; Time 130.781 s): 519.565 RLU
RLU ([2]; Time 132.781 s): 551.214 RLU
RLU ([2]; Time 134.781 s): 551.693 RLU
RLU ([2]; Time 136.781 s): 519.874 RLU
RLU ([2]; Time 137.578 s): 524.174 RLU
RLU ([2]; Time 143.578 s): 517.004 RLU
RLU ([2]; Time 149.578 s): 507.474 RLU
RLU ([2]; Time 155.578 s): 522.299 RLU
RLU ([2]; Time 161.578 s): 476.762 RLU
RLU ([2]; Time 167.578 s): 499.828 RLU
RLU ([2]; Time 173.578 s): 455.735 RLU
RLU ([2]; Time 179.578 s): 459.26 RLU
RLU ([2]; Time 185.578 s): 429.678 RLU
RLU ([2]; Time 191.578 s): 409.042 RLU
RLU ([2]; Time 197.578 s): 394.775 RLU
RLU ([2]; Time 203.578 s): 421.467 RLU
RLU ([2]; Time 209.578 s): 379.61 RLU
RLU ([2]; Time 215.578 s): 405.275 RLU
RLU ([2]; Time 221.578 s): 372.014 RLU
RLU ([2]; Time 227.578 s): 339.525 RLU
RLU ([2]; Time 233.578 s): 348.807 RLU
RLU ([2]; Time 239.578 s): 313.214 RLU
RLU ([2]; Time 245.578 s): 300.083 RLU
RLU ([2]; Time 293.578 s): 317.696 RLU
RLU ([2]; Time 299.578 s): 309.428 RLU
RLU ([2]; Time 305.578 s): 321.267 RLU
RLU ([2]; Time 311.578 s): 329.776 RLU
RLU ([2]; Time 317.578 s): 375.676 RLU
RLU ([2]; Time 323.578 s): 369.197 RLU
RLU ([2]; Time 329.578 s): 335.975 RLU
RLU ([2]; Time 335.578 s): 363.52 RLU
RLU ([2]; Time 341.578 s): 327.284 RLU
RLU ([2]; Time 347.578 s): 338.669 RLU
RLU ([2]; Time 353.578 s): 324.825 RLU
RLU ([2]; Time 359.578 s): 287.782 RLU
Activation threshold concentration Tas2r105 ([2]; p < 0.01 vs empty vector): 300 µM
